Test results published in US11780893B2, “Kv1.3 blockers” (Zealand Pharma A/S, priority 2019, dated 2023).
Bridge positions count the residues as written; N and C are the ends. Peptide text beside a SMILES is read from it.

Columns and labels:
Rat whole blood = Rat whole blood (Rattus norvegicus, UniProt P15384)
Kv1.2 = molecular target: T1, Kv1.2 (Homo sapiens, UniProt P16389); test: cell-based; conditions: CHO cells, whole-cell patch clamp; read-out: Potency IC50 (nM) Kv1.2
T1 construct: expressed in transfected cells; host or cells: Chinese Hamster Ovary (CHO)
T1 sequence (P16389 whole entry): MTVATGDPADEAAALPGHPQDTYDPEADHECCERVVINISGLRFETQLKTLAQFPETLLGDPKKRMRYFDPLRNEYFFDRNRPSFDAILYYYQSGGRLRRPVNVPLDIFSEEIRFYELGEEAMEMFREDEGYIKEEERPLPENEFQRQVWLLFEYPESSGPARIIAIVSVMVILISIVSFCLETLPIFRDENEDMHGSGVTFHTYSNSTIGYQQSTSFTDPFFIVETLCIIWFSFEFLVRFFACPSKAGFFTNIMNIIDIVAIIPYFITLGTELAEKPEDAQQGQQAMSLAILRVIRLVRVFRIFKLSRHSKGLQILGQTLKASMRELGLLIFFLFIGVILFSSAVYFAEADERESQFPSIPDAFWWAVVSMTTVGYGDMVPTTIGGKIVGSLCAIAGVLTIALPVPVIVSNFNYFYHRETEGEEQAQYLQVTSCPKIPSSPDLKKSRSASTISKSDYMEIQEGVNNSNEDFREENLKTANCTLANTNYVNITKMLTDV

Kv1.6 = molecular target: T2, Kv1.6 (Homo sapiens, UniProt P17658); test: cell-based; conditions: for IC50: CHO cells, whole-cell patch clamp, read-out: Potency IC50 (nM) Kv1.6
T2 construct: expressed in transfected cells; host or cells: Chinese Hamster Ovary (CHO)
T2 sequence (P17658 whole entry): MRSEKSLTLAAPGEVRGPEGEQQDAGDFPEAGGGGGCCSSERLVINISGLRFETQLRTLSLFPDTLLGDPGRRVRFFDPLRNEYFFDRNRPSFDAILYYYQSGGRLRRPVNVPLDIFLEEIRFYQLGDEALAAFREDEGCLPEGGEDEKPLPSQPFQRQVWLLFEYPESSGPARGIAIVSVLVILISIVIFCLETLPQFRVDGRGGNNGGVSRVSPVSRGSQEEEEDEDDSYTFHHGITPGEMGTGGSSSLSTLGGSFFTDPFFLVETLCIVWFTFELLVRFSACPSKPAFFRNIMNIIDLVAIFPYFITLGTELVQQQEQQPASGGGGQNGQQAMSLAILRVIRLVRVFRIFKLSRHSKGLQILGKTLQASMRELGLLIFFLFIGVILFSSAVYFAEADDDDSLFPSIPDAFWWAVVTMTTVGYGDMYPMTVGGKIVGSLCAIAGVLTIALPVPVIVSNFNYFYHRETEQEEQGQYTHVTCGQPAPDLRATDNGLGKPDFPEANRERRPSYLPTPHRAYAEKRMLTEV

Kv1.1 = molecular target: T3, Kv1.1 (Homo sapiens, UniProt Q09470); test: cell-based; conditions: for IC50: CHO cells, whole-cell patch clamp, read-out: Potency IC50 (nM) Kv1.1; for Selectivity Kv1.1/Kv1.3: ratio IC50[Kv1.1]/IC50[Kv1.3]
T3 construct: expressed in transfected cells; host or cells: Chinese Hamster Ovary (CHO)
T3 sequence (Q09470 whole entry): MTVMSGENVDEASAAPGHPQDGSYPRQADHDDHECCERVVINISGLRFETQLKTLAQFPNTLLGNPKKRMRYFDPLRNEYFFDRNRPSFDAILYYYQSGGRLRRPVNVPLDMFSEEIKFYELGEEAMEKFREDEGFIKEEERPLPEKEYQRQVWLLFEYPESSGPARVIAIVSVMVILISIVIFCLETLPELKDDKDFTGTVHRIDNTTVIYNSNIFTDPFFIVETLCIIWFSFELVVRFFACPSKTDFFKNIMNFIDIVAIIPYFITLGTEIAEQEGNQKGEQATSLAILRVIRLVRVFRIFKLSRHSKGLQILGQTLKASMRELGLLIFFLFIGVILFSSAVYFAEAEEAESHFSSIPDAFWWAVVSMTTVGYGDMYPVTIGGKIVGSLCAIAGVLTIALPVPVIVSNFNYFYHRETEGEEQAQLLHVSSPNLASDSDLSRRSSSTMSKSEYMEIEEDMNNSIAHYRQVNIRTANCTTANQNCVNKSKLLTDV

[1] = molecular target: T4, human Kv1.3 voltage-gated K+ channel (Homo sapiens, UniProt P22001); test: cell-based; conditions: inhibition of thallium flux, CHO-DUKX cells with human Kv1.3; read-out: IC50
T4 construct: host or cells: CHO-DUKX
T4 sequence (P22001 whole entry): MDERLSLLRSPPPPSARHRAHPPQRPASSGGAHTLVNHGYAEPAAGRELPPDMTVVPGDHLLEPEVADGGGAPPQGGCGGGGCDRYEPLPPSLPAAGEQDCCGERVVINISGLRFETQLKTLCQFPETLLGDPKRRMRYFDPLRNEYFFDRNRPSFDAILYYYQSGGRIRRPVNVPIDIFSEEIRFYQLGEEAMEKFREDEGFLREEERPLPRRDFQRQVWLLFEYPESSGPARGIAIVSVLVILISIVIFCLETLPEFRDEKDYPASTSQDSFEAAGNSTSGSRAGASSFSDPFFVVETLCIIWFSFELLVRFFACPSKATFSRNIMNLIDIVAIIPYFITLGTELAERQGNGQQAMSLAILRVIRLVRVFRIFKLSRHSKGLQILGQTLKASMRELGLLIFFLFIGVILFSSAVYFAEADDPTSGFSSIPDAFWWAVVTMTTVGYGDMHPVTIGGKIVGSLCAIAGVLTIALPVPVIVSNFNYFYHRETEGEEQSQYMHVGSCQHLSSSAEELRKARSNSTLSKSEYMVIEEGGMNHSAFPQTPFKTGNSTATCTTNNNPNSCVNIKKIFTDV

Kv1.3 = molecular target: T5, Kv1.3 (Homo sapiens, UniProt P22001); test: cell-based; conditions: CHO cells, whole-cell patch clamp; read-out: Potency IC50 (nM) Kv1.3
T5 construct: expressed in transfected cells; host or cells: Chinese Hamster Ovary (CHO)
T5 sequence (P22001 whole entry): as above

Chain of Rat whole blood (P15384 whole entry): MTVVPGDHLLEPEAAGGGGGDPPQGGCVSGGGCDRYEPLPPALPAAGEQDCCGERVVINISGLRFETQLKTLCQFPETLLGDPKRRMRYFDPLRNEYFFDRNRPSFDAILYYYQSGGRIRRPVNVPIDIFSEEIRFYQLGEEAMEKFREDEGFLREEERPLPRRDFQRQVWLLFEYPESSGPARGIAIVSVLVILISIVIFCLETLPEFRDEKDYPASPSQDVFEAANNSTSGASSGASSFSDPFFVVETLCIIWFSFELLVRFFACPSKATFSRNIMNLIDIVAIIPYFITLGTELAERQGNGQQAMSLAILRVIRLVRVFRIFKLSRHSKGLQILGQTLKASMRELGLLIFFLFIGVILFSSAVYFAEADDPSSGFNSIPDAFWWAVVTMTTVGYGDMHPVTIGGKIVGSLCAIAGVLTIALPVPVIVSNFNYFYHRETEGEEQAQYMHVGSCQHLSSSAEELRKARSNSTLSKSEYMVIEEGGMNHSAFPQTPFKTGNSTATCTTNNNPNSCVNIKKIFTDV

SMILES | IC50 (Rat whole blood) [nM] | IC50 (Kv1.2) [nM] | IC50 (Kv1.6) [nM] | Selectivity Kv1.6/Kv1.3 (Kv1.6; ratio IC50[Kv1.6]/IC50[Kv1.3]) | IC50 (Kv1.1) [nM] | Selectivity Kv1.1/Kv1.3 (Kv1.1) | IC50 [1] [nM] | IC50 (Kv1.3) [nM]
CC[C@H](C)[C@@H]1NC(=O)[C@H](C)NC(=O)[C@H](CCCCN)NC(=O)[C@H](CC(C)C)NC(=O)[C@@H]2CSSC[C@@H](C(=O)N[C@@H](Cc3ccc(O)cc3)C(=O)N3CCC[C@H]3C(=O)N[C@@H](CCCNC(=N)N)C(N)=O)NC(=O)[C@H](CCCCN)NC(=O)[C@@H]3CSSC[C@H](NC(=O)[C@H](CCC(=O)O)NC(=O)[C@H](C(C)C)NC(=O)[C@H](CO)NC(=O)[C@H]([C@@H](C)CC)NC(=O)[C@H](CO)NC(=O)[C@@H](NC(=O)[C@H](CCCNC(=N)N)NC(=O)[C@H](CCSC)NC(=O)[C@H](CC(=O)O)NC(=O)[C@H](CCSC)NC(=O)[C@@H](N)CC(N)=O)CSSC[C@H](NC(=O)[C@H](CCCCN)NC(=O)CNC(=O)[C@H](Cc4ccccc4)NC(=O)[C@H]([C@@H](C)CC)NC(=O)[C@H](CO)NC(=O)CNC1=O)C(=O)N[C@@H](CCSC)C(=O)N[C@@H](CC(N)=O)C(=O)N[C@@H](CCCCN)C(=O)N[C@@H](CCCCN)C(=O)N3)C(=O)N[C@@H](CCCCN)C(=O)N[C@@H](CCC(N)=O)C(=O)N[C@@H](CCCCN)C(=O)N2 [Compound 26] (H-NMDMRCSISVECKQKCLKAIGSIFGKCMNKKCKCYPR-NH2; disulfide 6-27, 12-32, 16-34) | ≤ 1 | 43 | > 3000 | >11800 | > 3000 | >11800 | 0.092 | 0.26
CC[C@H](C)[C@@H]1NC(=O)[C@H](C)NC(=O)[C@H](CCCCN)NC(=O)[C@H](CC(C)C)NC(=O)[C@@H]2CSSC[C@@H](C(=O)N[C@@H](Cc3ccc(O)cc3)C(=O)N3CCC[C@H]3C(=O)N[C@@H](CCCNC(=N)N)C(N)=O)NC(=O)[C@H](CCCCN)NC(=O)[C@@H]3CSSC[C@H](NC(=O)[C@H](CCC(=O)O)NC(=O)[C@H](CCCNC(=N)N)NC(=O)[C@H](CO)NC(=O)[C@H](C)NC(=O)[C@H](CO)NC(=O)[C@@H](NC(=O)[C@H](CCCNC(=N)N)NC(=O)[C@H](CCSC)NC(=O)[C@H](CC(=O)O)NC(=O)[C@H](CCSC)NC(=O)[C@@H](N)CC(N)=O)CSSC[C@H](NC(=O)[C@H](CCCCN)NC(=O)CNC(=O)[C@H](Cc4ccccc4)NC(=O)[C@H]([C@@H](C)CC)NC(=O)[C@H](CO)NC(=O)CNC1=O)C(=O)N[C@@H](CCSC)C(=O)N[C@@H](CC(N)=O)C(=O)N[C@@H](CCCCN)C(=O)N[C@@H](CCCCN)C(=O)N3)C(=O)N[C@@H](CCCCN)C(=O)N[C@@H](CCC(N)=O)C(=O)N[C@@H](CCCCN)C(=O)N2 [Compound 27] (H-NMDMRCSASRECKQKCLKAIGSIFGKCMNKKCKCYPR-NH2; disulfide 6-27, 12-32, 16-34) | ≤ 1 | 11 | 206 | – | > 3000 | >25900 | 0.065 | 0.12
CC[C@H](C)[C@@H]1NC(=O)[C@H](C)NC(=O)[C@H](CCCCN)NC(=O)[C@H](CC(C)C)NC(=O)[C@@H]2CSSC[C@@H](C(=O)N[C@@H](Cc3ccc(O)cc3)C(=O)N3CCC[C@H]3C(=O)N[C@@H](CCCNC(=N)N)C(N)=O)NC(=O)[C@H](CCCCN)NC(=O)[C@@H]3CSSC[C@H](NC(=O)[C@H](CCC(N)=O)NC(=O)[C@H](C(C)C)NC(=O)[C@H](CO)NC(=O)[C@H](C)NC(=O)[C@H](CO)NC(=O)[C@@H](NC(=O)[C@H](CCCNC(=N)N)NC(=O)[C@H](CCSC)NC(=O)[C@H](CC(=O)O)NC(=O)[C@H](CCSC)NC(=O)[C@@H](N)CC(N)=O)CSSC[C@H](NC(=O)[C@H](CCCCN)NC(=O)CNC(=O)[C@H](Cc4ccccc4)NC(=O)[C@H]([C@@H](C)CC)NC(=O)[C@H](CO)NC(=O)CNC1=O)C(=O)N[C@@H](CCSC)C(=O)N[C@@H](CC(N)=O)C(=O)N[C@@H](CCCCN)C(=O)N[C@@H](CCCCN)C(=O)N3)C(=O)N[C@@H](CCCCN)C(=O)N[C@@H](CCC(N)=O)C(=O)N[C@@H](CCCCN)C(=O)N2 [Compound 28] (H-NMDMRCSASVQCKQKCLKAIGSIFGKCMNKKCKCYPR-NH2; disulfide 6-27, 12-32, 16-34) | ≤ 1 | 16 | 252 | – | > 3000 | >15200 | 0.064 | 0.2
